Results taken from PubChem BioAssay AID1259407 (Chemical Carcinogenesis Research Information System (CCRIS), 2018).
Activity calls are given as the source filed them. How the calls were made is not given here.

Tested on: CCRIS mutagenicity, Ames/micronucleus/aberration tests
Assay: CCRIS mutagenicity studies
[1] = Test System: AMES SALMONELLA TYPHIMURIUM, Strain/Indicator: TA98, Metabolic Activation: NONE, Method: PREINCUBATION
[2] = Test System: AMES SALMONELLA TYPHIMURIUM, Strain/Indicator: TA100, Metabolic Activation: NONE, Method: PREINCUBATION
[3] = Test System: AMES SALMONELLA TYPHIMURIUM, Strain/Indicator: TA1535, Metabolic Activation: NONE, Method: PREINCUBATION

## CCN(CC)CCCN(c1ccccc1)C1Cc2ccccc2C1
[1]
  mutagenic call: inactive; negative
Test System: AMES SALMONELLA TYPHIMURIUM, Strain/Indicator: TA98, Metabolic Activation: S-9, Method: PREINCUBATION
  mutagenic call: inactive; negative
[2]
  mutagenic call: inactive; negative
Test System: AMES SALMONELLA TYPHIMURIUM, Strain/Indicator: TA100, Metabolic Activation: S-9, Method: PREINCUBATION
  mutagenic call: inactive; negative
[3]
  mutagenic call: inactive; negative
Test System: AMES SALMONELLA TYPHIMURIUM, Strain/Indicator: TA1535, Metabolic Activation: S-9, Method: PREINCUBATION
  mutagenic call: inactive; negative
Test System: AMES SALMONELLA TYPHIMURIUM, Strain/Indicator: TA1537, Metabolic Activation: NONE, Method: PREINCUBATION
  mutagenic call: inactive; negative
Test System: AMES SALMONELLA TYPHIMURIUM, Strain/Indicator: TA1537, Metabolic Activation: S-9, Method: PREINCUBATION
  mutagenic call: inactive; negative
Test System: AMES SALMONELLA TYPHIMURIUM, Strain/Indicator: TA1538, Metabolic Activation: NONE, Method: PREINCUBATION
  mutagenic call: inactive; negative
Test System: AMES SALMONELLA TYPHIMURIUM, Strain/Indicator: TA1538, Metabolic Activation: S-9, Method: PREINCUBATION
  mutagenic call: inactive; negative
Test System: E. COLI, Strain/Indicator: WP2 UVRA, Metabolic Activation: NONE, Method: PREINCUBATION
  mutagenic call: inactive; negative
Test System: E. COLI, Strain/Indicator: WP2 UVRA, Metabolic Activation: S-9, Method: PREINCUBATION
  mutagenic call: inactive; negative

## Nc1ccccc1C(=O)OC/C=C/c1ccccc1
End Point: IN VITRO CHROMOSOMAL ABERRATIONS, Test System: CHINESE HAMSTER LUNG FIBROBLAST CELLS (CHL/IU), Metabolic Activation: NONE
  mutagenic call: inactive; negative
End Point: IN VITRO CHROMOSOMAL ABERRATIONS, Test System: CHO CELLS, Metabolic Activation: NONE
  mutagenic call: inactive; negative
End Point: IN VITRO CHROMOSOMAL ABERRATIONS, Test System: CHO CELLS, Metabolic Activation: RAT, LIVER, S-9, AROCLOR 1254
  mutagenic call: inactive; negative
Test System: AMES SALMONELLA TYPHIMURIUM, Strain/Indicator: TA97, Metabolic Activation: HAMSTER, LIVER, S-9, AROCLOR 1254 (10%), Method: PREINCUBATION
  mutagenic call: inactive; negative
Test System: AMES SALMONELLA TYPHIMURIUM, Strain/Indicator: TA97, Metabolic Activation: HAMSTER, LIVER, S-9, AROCLOR 1254 (30%), Method: PREINCUBATION
  mutagenic call: inactive; negative
Test System: AMES SALMONELLA TYPHIMURIUM, Strain/Indicator: TA97, Metabolic Activation: NONE, Method: PREINCUBATION
  mutagenic call: inactive; negative
Test System: AMES SALMONELLA TYPHIMURIUM, Strain/Indicator: TA97, Metabolic Activation: RAT, LIVER, S-9, AROCLOR 1254 (10%), Method: PREINCUBATION
  mutagenic call: inactive; negative
Test System: AMES SALMONELLA TYPHIMURIUM, Strain/Indicator: TA97, Metabolic Activation: RAT, LIVER, S-9, AROCLOR 1254 (30%), Method: PREINCUBATION
  mutagenic call: inactive; negative
Test System: AMES SALMONELLA TYPHIMURIUM, Strain/Indicator: TA98, Metabolic Activation: HAMSTER, LIVER, S-9, AROCLOR 1254 (10%), Method: PREINCUBATION
  mutagenic call: inactive; negative
Test System: AMES SALMONELLA TYPHIMURIUM, Strain/Indicator: TA98, Metabolic Activation: HAMSTER, LIVER, S-9, AROCLOR 1254 (30%), Method: PREINCUBATION
  mutagenic call: inactive; negative
[1]
  mutagenic call: inactive; negative
Test System: AMES SALMONELLA TYPHIMURIUM, Strain/Indicator: TA98, Metabolic Activation: RAT, LIVER, S-9, AROCLOR 1254 (10%), Method: PREINCUBATION
  mutagenic call: inactive; negative
Test System: AMES SALMONELLA TYPHIMURIUM, Strain/Indicator: TA98, Metabolic Activation: RAT, LIVER, S-9, AROCLOR 1254 (30%), Method: PREINCUBATION
  mutagenic call: inactive; negative
Test System: AMES SALMONELLA TYPHIMURIUM, Strain/Indicator: TA100, Metabolic Activation: HAMSTER, LIVER, S-9, AROCLOR 1254 (10%), Method: PREINCUBATION
  mutagenic call: inactive; negative
Test System: AMES SALMONELLA TYPHIMURIUM, Strain/Indicator: TA100, Metabolic Activation: HAMSTER, LIVER, S-9, AROCLOR 1254 (30%), Method: PREINCUBATION
  mutagenic call: inactive; negative
[2]
  mutagenic call: inactive; negative
Test System: AMES SALMONELLA TYPHIMURIUM, Strain/Indicator: TA100, Metabolic Activation: RAT, LIVER, S-9, AROCLOR 1254 (10%), Method: PREINCUBATION
  mutagenic call: inactive; negative
Test System: AMES SALMONELLA TYPHIMURIUM, Strain/Indicator: TA100, Metabolic Activation: RAT, LIVER, S-9, AROCLOR 1254 (30%), Method: PREINCUBATION
  mutagenic call: inactive; negative
Test System: AMES SALMONELLA TYPHIMURIUM, Strain/Indicator: TA1535, Metabolic Activation: HAMSTER, LIVER, S-9, AROCLOR 1254 (10%), Method: PREINCUBATION
  mutagenic call: inactive; negative
Test System: AMES SALMONELLA TYPHIMURIUM, Strain/Indicator: TA1535, Metabolic Activation: HAMSTER, LIVER, S-9, AROCLOR 1254 (30%), Method: PREINCUBATION
  mutagenic call: inactive; negative
[3]
  mutagenic call: inactive; negative
Test System: AMES SALMONELLA TYPHIMURIUM, Strain/Indicator: TA1535, Metabolic Activation: RAT, LIVER, S-9, AROCLOR 1254 (10%), Method: PREINCUBATION
  mutagenic call: inactive; negative
Test System: AMES SALMONELLA TYPHIMURIUM, Strain/Indicator: TA1535, Metabolic Activation: RAT, LIVER, S-9, AROCLOR 1254 (30%), Method: PREINCUBATION
  mutagenic call: inactive; negative
Test System: E. COLI, Strain/Indicator: WP2 UVRA, Metabolic Activation: HAMSTER, LIVER, S-9, AROCLOR 1254, Method: STANDARD PLATE
  mutagenic call: inactive; negative
Test System: E. COLI, Strain/Indicator: WP2 UVRA, Metabolic Activation: NONE, Method: STANDARD PLATE
  mutagenic call: inactive; negative
Test System: Mouse lymphoma, Strain/Indicator: L5178Y (tk+/tk-), Metabolic Activation: None, Method: Suspension/plate
  mutagenic call: inactive; negative
Test System: Mouse lymphoma, Strain/Indicator: L5178Y (tk+/tk-), Metabolic Activation: Rat, Liver, S-9, Aroclor 1254, Method: Suspension/plate
  mutagenic call: active; equivocal (previous evaluation positive)
Test System: UDS RAT HEPATOCYTES, Strain/Indicator: BROMODEOXYURIDINE INCORP, Metabolic Activation: NONE, Method: FLOW CYTOMETRIC ANALYSIS
  mutagenic call: inactive; negative
Test System: UDS RAT HEPATOCYTES, Strain/Indicator: THY INCORP, Metabolic Activation: NONE, Method: AUTORADIOGRAPHY
  mutagenic call: inactive; negative

## O=[N+]([O-])c1ccc2[nH]ncc2c1
Test System: AMES SALMONELLA TYPHIMURIUM, Strain/Indicator: TA98, Metabolic Activation: HAMSTER, LIVER, S-9, AROCLOR 1254, Method: STANDARD PLATE
  mutagenic call: active; positive
Test System: AMES SALMONELLA TYPHIMURIUM, Strain/Indicator: TA98, Metabolic Activation: NONE, Method: STANDARD PLATE
  mutagenic call: active; positive
Test System: AMES SALMONELLA TYPHIMURIUM, Strain/Indicator: TA98, Metabolic Activation: RAT, LIVER, S-9, AROCLOR 1254, Method: STANDARD PLATE
  mutagenic call: active; positive
Test System: AMES SALMONELLA TYPHIMURIUM, Strain/Indicator: TA100, Metabolic Activation: HAMSTER, LIVER, S-9, AROCLOR 1254, Method: STANDARD PLATE
  mutagenic call: active; positive
Test System: AMES SALMONELLA TYPHIMURIUM, Strain/Indicator: TA100, Metabolic Activation: NONE, Method: STANDARD PLATE
  mutagenic call: active; positive
Test System: AMES SALMONELLA TYPHIMURIUM, Strain/Indicator: TA100, Metabolic Activation: RAT, LIVER, S-9, AROCLOR 1254, Method: STANDARD PLATE
  mutagenic call: active; positive
Test System: MOUSE LYMPHOMA, Strain/Indicator: L5178Y (TK+/TK-), Metabolic Activation: NONE, Method: SUSPENSION/PLATE
  mutagenic call: inactive; negative. reevaluation of results: negative
Test System: MOUSE LYMPHOMA, Strain/Indicator: L5178Y (TK+/TK-), Metabolic Activation: RAT, LIVER, S-9, AROCLOR 1254, Method: SUSPENSION/PLATE
  mutagenic call: inactive; negative. reevaluation of results: negative
